What was measured:
U87-MG cells [1] = assay: CCK assay, cell proliferation of human glioblastoma cells; type: cell-based; conditions: 0, 1, 2, 4 μM, 48 hours, FIG. 2
Procedure: Human glioblastoma cell line U87-MG cells were seeded at a density of 1×10^4 cells/well in a 96-well plate and cultured for 24 hours. Thereafter, the cells were treated with DMSO as a control and the compound AON-MG23-01 or AON-MG23-02 of the present invention, and then cultured for 48 hours. The compound of the present invention was treated at various concentrations of 0, 1, 2, and 4 μM. 10 μL of a CCK reagent was added and reacted for an hour, and the absorbance was then measured at 450 nm.

U87-MG cells [2] = assay: Cell migration assay (SPLScar Block); type: cell-based; conditions: Homo sapiens, U-87 MG, 24 hours, FIG. 3, read-out: inhibition of cell migration compared to the untreated control
Procedure: Human glioblastoma cell line U87-MG cells were seeded at a density of 8×10^4 cells/well on a SPLScar Block (SPL) plate and cultured for 24 hours. After 24 hours, the block was removed, and the cells were treated with the compound AON-MG23-01 or AON-MG23-02 of the present invention, and cultured at 37° C. in a CO2 incubator for 24 hours. The compound of the present invention was treated at concentrations of 0, 1, 2, and 4 μM. Images were taken before and after culture, and the distance of cell migration was measured using Image J software. Based on the results, whether the cell migration was inhibited was analyzed.

U87-MG cells [3] = assay: Matrigel Transwell invasion assay (metastasis inhibition); type: cell-based, human; conditions: for degree of penetration into Matrigel compared to the untreated control: 24 hours
Procedure: A human glioblastoma cell line U87-MG was seeded at a density of 8×10^4 cells/well on Matrigel-coated filters (Transwell invasion chambers, Corning), and the cells were then treated with the compound (AON-MG23-01 or AON-MG23-02; each at 0, 1, 2, and 4 μM) of the present invention, and cultured at 37° C. in a CO2 incubator for 24 hours. After the culturing was completed, the cells were fixed and stained using the Diff-Quick Stain kit (Sysmex, Kobe, Japan). Images of the stained cells were taken under a microscope, the cells were counted using Image J software, and statistical analysis was then performed.
A human glioblastoma cell line U87-MG was seeded at a density of 6×10^4 cells/well on the top of a Matrigel-coated filter (Transwell invasion chambers, Corning), treated with 4 μM of the compound AON-MG23-02 of the present invention, 4 μM of the EGFR inhibitor Osimertinib, 100 μM of the ANO1 inhibitor CaCCinh-A01, or a combination of 4 μM of Osimertinib and 100 μM of CaCCinh-A01, and then cultured at 37° C. in a CO2 incubator for 16 hours. After the culturing was completed, the cells were fixed and stained using a Diff-Quick stain kit (Sysmex, Kobe, Japan). Images of the stained cells were taken under a microscope, the cells were counted using Image J software, and statistical analysis was then performed.
A human glioblastoma cell line U87-MG was seeded at a density of 8×10^4 cells/well on the top of a Matrigel-coated filter (Transwell invasion chambers, Corning), and then treated with 0, 8, 16, and 32 μM of each of the compound derivatives AON-MG23-05, AON-MG23-06, AON-MG23-07, and AON-MG23-08 of the present invention, and cultured at 37° C. in a CO2 incubator for 24 hours. After the culturing was completed, the cells were fixed and stained using a Diff-Quick stain kit (Sysmex, Kobe, Japan). Images of the stained cells were taken under a microscope, the cells were counted using Image J software, and statistical analysis was then performed.

ANO1 = assay: Western blot of ANO1 protein expression in glioblastoma cell line; type: cell-based, human; conditions: U87-MG, 48 hours; for expression of ANO1 protein compared to the untreated control: 0, 8, 16, 32 μM, FIGS. 9A to 9D
Procedure: (§1) It was determined whether the compound of the present invention affects the expression of ANO1 and EGFR proteins in a glioblastoma cell line. The human glioblastoma cell line U87-MG was seeded at a density of 1×10^6 cells in a 60 mm dish, and cultured for 24 hours, and the cells were then treated with the compound (AON-MG23-01 or AON-MG23-02; each at 0, 1, 2, and 4 μM) of the present invention, and cultured for 48 hours. The cultured cells were harvested and the harvested cells were lysed for Western blotting. An anti-ANO1 antibody (Abcam, ab53212), an anti-pEGFR antibody (Cell Signaling, #4407S), an anti-EGFR antibody (Cell Signaling, #4267S), and an anti-α-tubulin antibody (Santacruz, #SC-5286) were used as the antibodies for Western blotting. Protein concentration was quantified using the BSA method (a protein quantitation assay, a bovine serum albumin assay) (Pierce, Cat. 23225). After the cells were lysed, an equal amount (10 μg) of the proteins obtained from the lysed cells was subjected to 10% SDS-PAGE to separate the proteins depending on their molecular weights, transferred to a PVDF membrane (Bio-Rad), and then treated with a blocking buffer (5% skim milk in a Tris-buffered saline (TBS) buffer containing 0.1% Tween 20; TBS-T) at room temperature for an hour. Thereafter, the PVDF membrane was treated with the primary antibody, and reacted at 4° C. for 16 hours. […] The amount of each protein was quantified and analyzed using Image J software.
(§2) The inhibitory effects of the compound AON-MG23-02 of the present invention, the EGFR inhibitor Osimertinib, and the ANO1 inhibitor CaCCinh-A01 on the expression of ANO1, EGFR, and pEGFR proteins in a glioblastoma cell line were compared. […] Protein concentration was quantified using the BSA method (a protein quantitation assay, a bovine serum albumin assay) (Pierce, Cat. 23225). […] The amount of each protein was quantified and analyzed using Image J software. […]

EGFR = assay: Western blot of EGFR protein expression in glioblastoma cell line; type: cell-based, human; conditions: U87-MG, 48 hours; for expression of EGFR protein compared to the untreated control: 0, 8, 16, 32 μM, FIGS. 9A to 9D
Procedure: as §1, §2

pEGFR = assay: Western blot of pEGFR protein expression in glioblastoma cell line; type: cell-based, human; conditions: U87-MG; 4 μM; 48 hours; vs 2 μM Osimertinib, 100 μM CaCCinh-A01, combination; FIGS. 8A, 8B
Procedure: The inhibitory effects of the compound AON-MG23-02 of the present invention, the EGFR inhibitor Osimertinib, and the ANO1 inhibitor CaCCinh-A01 on the expression of ANO1, EGFR, and pEGFR proteins in a glioblastoma cell line were compared. A human glioblastoma cell line U87-MG was seeded at a density of 100×10^4 cells/dish in a 60 mm dish, and cultured for 24 hours. Thereafter, the cells were treated with 4 μM of AON-MG23-02, 2 μM of the EGFR inhibitor Osimertinib, 100 μM of the ANO1 inhibitor CaCCinh-A01, or a combination of 2 μM of Osimertinib and 100 μM of CaCCinh-A01, and cultured for 48 hours. The cultured cells were harvested and the harvested cells were lysed for Western blotting. An anti-ANO1 antibody (Abcam, ab53212), an anti-pEGFR antibody (Cell Signaling, #4407S), an anti-EGFR antibody (Cell Signaling, #4267S), and an anti-ACTIN antibody (sigma, #A2066) were used as antibodies for Western blotting. Protein concentration was quantified using the BSA method (a protein quantitation assay, a bovine serum albumin assay) (Pierce, Cat. 23225). […] The amount of each protein was quantified and analyzed using Image J software.

[4] = 4 μM, vs 2 μM Osimertinib, 100 μM CaCCinh-A01, combination, FIGS. 8A, 8B
[5] = 0, 8, 16, 32 μM, FIGS. 10A, 10B

SMILES | proliferation of U87-MG cells (CCK assay) (U87-MG cells [1]) | inhibition at 4 µM (U87-MG cells [2]) [%] | degree of penetration into Matrigel compared to the untreated control (U87-MG cells [3]; 0, 1, 2, 4 μM, FIG. 4) | degree of penetration into Matrigel compared to the untreated control (U87-MG cells [3]; [5]) | expression of ANO1 protein compared to the untreated control (ANO1) | expression of EGFR protein compared to the untreated control (EGFR) | other results
COc1cc(N2CCC(N3CCN(C)CC3)CC2)ccc1Nc1ncc(Cl)c(Nc2ccccc2N(C2CC2)S(C)(=O)=O)n1 [AON-MG23-01, N-(2-((5-chloro-2-((2-methoxy-4-(4-(4-methylpiperazin-1-yl)piperidin-1-yl)phenyl)amino)pyrimidin-4-yl)amino)phenyl)-N-cyclopropylmethanesulfonamide] | inhibits the proliferation of U87-MG cells | > 65 | reduced degree of penetration into Matrigel |  |  |  | 
COc1cc(N2CCC(N(C)C)CC2)ccc1Nc1ncc(Cl)c(Nc2ccccc2N(C2CC2)S(C)(=O)=O)n1 [AON-MG23-02, N-(2-((5-chloro-2-((4-(4-(dimethylamino)piperidin-1-yl)-2-methoxyphenyl)amino)pyrimidin-4-yl)amino)phenyl)-N-cyclopropylmethanesulfonamide] | inhibits the proliferation of U87-MG cells | > 65 | reduced degree of penetration into Matrigel |  |  |  | degree of penetration into Matrigel compared to untreated control, EGFR inhibitor-treated group and ANO1 inhibitor-treated group (U87-MG cells [3]; 4 μM, 16 hours, vs 4 μM Osimertinib, 100 μM CaCCinh-A01, FIGS. 7A, 7B): reduced degree of penetration into Matrigel; expression of ANO1 protein compared to untreated control, EGFR inhibitor, ANO1 inhibitor and combination groups (ANO1; [4]): reduces the expression; expression of EGFR protein compared to untreated control, EGFR inhibitor, ANO1 inhibitor and combination groups (EGFR; [4]): reduces the expression; expression of pEGFR protein compared to untreated control, EGFR inhibitor, ANO1 inhibitor and combination groups (pEGFR): reduces the expression
O=C1c2ccccc2CN1Cc1ccc(CCN(CCO)Cc2ccc3ccccc3c2)cc1 [AON-MG23-05, 2-(4-(2-((2-hydroxyethyl)(naphthalen-2-ylmethyl)amino)ethyl)benzyl)isoindolin-1-one] |  |  |  | reduced degree of penetration into Matrigel | reduced expression | reduced expression | 
CCN(Cc1ccc2ccccc2c1)CC(O)c1ccc(CN2Cc3ccccc3C2=O)cc1 (stereo not drawn) [AON-MG23-06, 2-(4-(2-(ethyl(naphthalen-2-ylmethyl)amino)-1-hydroxyethyl)benzyl)isoindolin-1-one] |  |  |  | reduced degree of penetration into Matrigel |  |  | 
O=C1c2ccccc2CN1Cc1ccc(CCP(=O)(Cc2ccc3ccccc3c2)Cc2ccc3ccccc3c2)cc1 [AON-MG23-07, 2-(4-(2-(bis(naphthalen-2-ylmethyl)phosphoryl)ethyl)benzyl)isoindolin-1-one] |  |  |  | reduced degree of penetration into Matrigel |  |  | 
NC(=O)N(CCc1ccc(CN2Cc3ccccc3C2=O)cc1)Cc1ccc2ccccc2c1 [AON-MG23-08, 1-(naphthalen-2-ylmethyl)-1-(4-((1-oxoisoindolin-2-yl)methyl)phenethyl)urea] |  |  |  | reduced degree of penetration into Matrigel | reduced expression | reduced expression | 

— US20260256816A1, “PHARMACEUTICAL COMPOSITION FOR PREVENTING OR TREATING BRAIN TUMOR” (ASTRION INC., priority 2023, published 2026)
